This note sets out measurements from the SangsterLogP compilation.

In the case of `CCN(C(=O)CSP(=S)(OC)OC)c1ccccc1C`, the logP worked out at 2.82.
Under `CCOC(=O)CN(C(=O)CCl)c1ccc(Cl)cc1` stands 2.15; under `CCN(C(=O)CSP(=S)(OC)OC)c1ccccc1`, 2.26.
Next, `COP(=S)(OC)SCC(=O)N(Cc1ccccc1)c1ccccc1`: 3.13.
Under `C=CCN(C(=O)CSP(=S)(OC)OC)c1ccccc1C` stands 2.93; under `CCOC(=O)C(C)N(C(=O)CSP(=S)(OC)OC)c1ccc(Cl)cc1` (stereo not given), 2.75; under `C=CCN(C(=O)CCl)c1ccc(Cl)cc1`, 3.19.
In turn, `C=CCN(C(=O)CCl)c1ccc(C)cc1` gave a logP of 2.92.
Under `CCOC(=O)CN(C(=O)CCl)c1cccc(Cl)c1` stands 2.42; under `CCOC(=O)C(C)N(C(=O)CSP(=S)(OC)OC)c1ccccc1` (stereo not given), 1.79.
Next, `O=C(CCl)N(Cc1ccccc1)c1cccc(Cl)c1`: 4.28.
Next, `CCN(C(=O)CSP(=S)(OC)OC)c1ccc(C)cc1`: 2.81; `CCOC(=O)[C@H](C)N(C(=O)CCl)c1ccc(Cl)cc1`: 2.75; `C=CCN(C(=O)CCl)c1cccc(Cl)c1`: 3.38.
Regarding `C=CCN(C(=O)CSP(=S)(OC)OC)c1ccc(Cl)cc1`, the logP came to 3.19.
Next, `CCOC(=O)CN(C(=O)CSP(=S)(OC)OC)c1ccc(Cl)cc1`: 2.15.
Under `CCCN(C(=O)CCl)c1ccc(Cl)cc1` stands 3.62; under `CCOC(=O)CN(C(=O)CSP(=S)(OC)OC)c1ccccc1Cl`, 2.42.
The compound `CCOP(=S)(Oc1ccc(Cl)cc1Cl)SCC(=O)N(CC)c1ccc(C)cc1` (stereo not given) gave a logP of 2.82.
Next, `C=CCN(C(=O)CSP(=S)(OC)OC)c1ccc(C)cc1`: 2.92; `O=C(CCl)N(Cc1ccccc1)c1ccc(Cl)cc1`: 4.09.
Next, `CCOP(=S)(Oc1ccc(Cl)cc1Cl)SCC(=O)N(CC)c1ccccc1C` (stereo not given): 2.82; `CCOC(=O)CN(C(=O)CSP(=S)(OC)OC)c1ccccc1`: 1.19; `COP(=S)(OC)SCC(=O)N(c1ccccc1)C(C)C`: 2.5.
Next, `CCOC(=O)[C@H](C)N(C(=O)CCl)c1ccccc1`: 1.79; `CCN(C(=O)CCl)c1ccccc1`: 2.26.
In turn, `COP(=S)(OC)SCC(=O)N(Cc1ccccc1)c1ccc(Cl)cc1` displayed a logP of 4.09.
Under `O=C(CCl)N(Cc1ccccc1)c1ccccc1` stands 3.13; under `CCOC(=O)C(C)N(C(=O)CSP(=S)(OC)OC)c1cccc(Cl)c1` (stereo not given), 3.68.
Next, `CCN(C(=O)CCl)c1ccccc1C`: 2.82.

As a reminder, the logP is the decadic logarithm of the partition coefficient of the neutral form, usually between octanol and water. The low end stands for lower lipophilicity, the high end for higher lipophilicity.
